Patent publication EP3694851B1, “ENVIRONMENTALLY DEGRADABLE QUINOLONE ANTIBIOTICS HAVING A HEMIAMINAL STRUCTURAL UNIT” (priority 2017, dated 2019)
≈ marks a conversion by molar mass, not a printed value.

Columns and labels:
[1] = system: Vibrio fischeri NRRL-B-11177; assay: Luminescence inhibition in V. fischeri (luminescent bacteria test); assay type: cell-based; conditions: after cleavage of the linker, compared with Verbindung 1; Figure 5
Source text: Die antibiotische Aktivität in V. fischeri wurden in einem Leuchtbakterientest (LBT) mit Vibrio fischeri NRRL-B-11177 (Hach-Lange GmbH, Düsseldorf, Germany) untersucht. Die Durchführung des LBT erfolgte nach dem modifizierten Protokoll von Menz et al. (2013), siehe Literaturliste.

[2] = system: E. faecalis ATCC 29121, P. aeruginosa ATCC 27853, S. aureus ATCC 29213, E. coli ATCC 25922, S. aureus ATCC 43300, K. pneumoniae ATCC 700603, A. baumanii ATCC …; assay: Minimal inhibitory concentrations in various bacterial strains (broth microdilution); assay type: cell-based
Source text: Minimale Hemmkonzentrationen in verschiedenen Bakterienstämmen: Die antibiotische Aktivität wurde mittels Durchführung der Broth-Mikroverdünnungsmethode ermittelt (Cockerill et al., 2012, siehe Literatur). Es wurden die folgenden Bakterienstämme verwendet: Staphylococcus aureus (ATCC 29213), Enterococcus faecalis (ATCC 29212), Escherichia coli (ATCC 25922) und Pseudomonas aeruginosa (ATCC 27853), sowie S. aureus (ATCC 43300), K. pneumoniae (ATCC 700603), A. baumanii (ATCC 19606). Die Bestimmungen der minimalen Hemmkonzentrationen wurden durch zwei unabhängige Laboratorien durchgeführt.
Bakterienzellen wurden bei einer Zelldichte von 2 - 8 × 10^5 cfu/ml in 200 µl Mueller-Hinton-Brothmedium verdünnt. Die Ansätze enthielten eine Verdünnungsreihe der Testsubstanzen. Diese inokulierten 96-well Platten wurden für 18 h bei 36°C inkubiert. Die minimale Hemmkonzentration wurde ermittelt durch visuelle Abschätzung der niedrigsten Konzentration, die die Bakterien vollständig gehemmt hatte.

[3] = Abiotic hydrolysis (pH-dependent, phosphate-buffered saline, HPLC); conditions: for Abspaltung des labilen Linkers: Figures 6a and 6b; for Abbau des Hemiaminal-Restes: within 7 days
Protocol: Der pH-Wert wurde auf pH 6, pH 7,4 oder pH 9 eingestellt. Die Ansätze wurden bei 37 °C für pH 6 und 7,4 und bei Raumtemperatur für pH 9 unter Schütteln (250 rpm) für 28 Tage inkubiert. An Tag 0, 1, 7, 14, 21 und 28 wurden Proben (700µL) für die HPLC Analyse entnommen. Der Quotient der Ausgangskonzentration co durch die Konzentration am jeweiligen Zeitpunkt (ct) wurde kalkuliert und als natürlicher Logarithmus gegen die Inkubationszeit aufgetragen.
Eine NUCLEODUR® RP-C18 (CC 125/4 100-5µm C18 ec) Säule und mobile Phasen bestehend aus 0.1 % Ameisensäure in hochreinem Wasser (CH2O2: Solution A) and 100 % Acetonitril (CH3CN: Solution B) wurden verwendet. Die Flußrate wurde auf 0.5 mL min^-1 eingestellt. Die Temperatur des Säulenofens wurde auf 25 °C eingestellt und das Injektionsvolumen betrug 10 µL. […] Die Testsubstanzen wurden durch einen UV/Vis Detektor bei 270 nm detektiert. Die Fließgradientenmethode wurde angewendet wie in Tabelle 1 aufgelistet. Tabelle 1 : Fließgradientenbedingungen zur chromatographischen Analyse der Testsubstanzen

[4] = Stability test at low pH (Marbofloxacin); assay type: physicochemical
[5] = system: Humane embryonale Nierenzellen (HEK293); assay: Cytotoxicity test in HEK293 cells; assay type: cell-based, human; conditions: Figure 3
Protocol: Humane embryonale Nierenzellen (HEK293) wurden in 384-well-Platten mit einer Dichte von 6000 Zellen/well in einem finalen Volumen von 50 µl mit der gewünschten Konzentration der Testsubstanz ausgesät. DMEM mit 10% fötalem Rinderserum (FBS) wurde als Wachstumsmedium verwendet. Die Zellen wurden zusammen mit den Testsubstanzen für 20 h bei 37 °C mit 5% COz inkubiert.

[6] = system: Escherichia coli K12 ATCC 23716; assay: Growth inhibition in E. coli (96-well plate, 4 h at 37°C, absorption at 600 nm); assay type: cell-based; conditions: ATCC23716, 4 h, E. coli (ATCC 23716), activity in the range of medium-strength fluoroquinolones, Figure 4
Protocol: Escherichia coli K12 ATCC 23716 wurde von DSMZ GmbH (Braunschweig, Germany) erhalten.
Die Testsubstanzen wurden in Wasser verdünnt und auf einer 96-well-Platte zur Bakteriensuspension (in 2x Bakterienmedium (10 g Pepton and 6 g Fleischextrakt in 1 Liter)) gegeben, so dass die Endkonzentration des Mediums 1x war. Die Platte wurde 4h bei 37°C inkubiert. Die Zelldichte wurde photometrisch durch Messung der Absorption bei 600 nm bestimmt. Die Wachstumshemmung in Prozent der unbehandelten Kontrollen gegen die Konzentration der Testsubstanz aufgetragen.

## O=C(O)c1cnc2cc(N3CCNCC3)c(F)cc2c1O [Cip-d-CP, reference compound]
[1]
  antibiotische Aktivität in V. fischeri (Leuchthemmung): deutliche Abschwächung der antibiotischen Aktivität nach Abspaltung des Linkers
[2]; fragment after cleavage of the linker compared with Verbindung 1, Figures 2 and 3
  antibiotische Aktivität (MHK) im Vergleich zur Ausgangssubstanz: deutlich schwächer aktiv als die Ausgangssubstanz
[3]; chosen pH conditions (pH 6, pH 7,4 at 37°C; pH 9 at room temperature; 28 days)
  Instabilität unter den gewählten pH-Bedingungen: Weder das verbleibende Fragment noch die Ausgangssubstanz Ciprofloxacin waren unter den gewählten pH-Bedingungen instabil

## CN1CCN(c2c(F)cc3c(=O)c(C(=O)O)cn4c3c2OCN4C)CC1 [Marbofloxacin]
[4]
  Instabilität bei niedrigem pH: kaum Instabilität beobachtet

## O=C(O)c1cn(C2CCCO2)c2cc(N3CCNCC3)c(F)cc2c1=O (stereo not drawn) [Verbindung 1]
[5]
  Zytotoxizität in humanen Zellen (HEK 293): keine Hinweise auf einen Zytotoxizität
[2]; other pathogenic bacteria, compared with quinolone generations
  Aktivität in anderen pathogenen Bakterien: über den Chinolonen der ersten Generation, aber unterhalb etablierter Fluorchinolone der zweiten Generation
[2]; strains of E. coli, K. pneumoniae, P. aeruginosa and V. fischeri, compared with medium-strength fluoroquinolones
  antibakterielle Aktivität: zu mittelstarken Fluorchinolonen eine vergleichbare antibakterielle Aktivität
[3]; at low pH
  Abspaltung des labilen Linkers: schnell
[3]; low pH of four (e.g. in urine)
  Abbau des Hemiaminal-Restes: zum größten Teil abgebaut
[3]; physiological conditions (pH= 7,4)
  Abbau des Hemiaminal-Restes: nur langsam abgebaut
[3]; under physiological conditions
  Abspaltung des labilen Linkers: langsam
[6]
  MIC: 0.1 to 1 µg/mL (≈ 0.277 to 2.77 µM)
